The values below come from patent US20230265116A1, “DEGRADATION OF (EGFR) BY CONJUGATION OF EGFR INHIBITORS WITH E3 LIGASE LIGAND AND METHODS OF USE” (BEIGENE, LTD., priority 2020, published 2023).

Experiment [1] concerns EGFR Del19/T790M/C797S (BaF3-DTC cells). Nature of the experiment: EGFR degradation HTRF assay, BaF3-DTC cells. In kind it is cell-based. The settings on record: 16h treatment; for DTC Dmax (%): maximum percentage of degradation; for DC50: read-out: DTC DC50. In a few lines:
(§1)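 EGFR remaining after a 16 h, 37 °C exposure (8 doses, 5-fold steps from 10 uM final, 0.2% DMSO) was quantified by HTRF antibodies in cell lysate. Percent inhibition relative to DMSO control was fitted by four-parameter logistic to give DC50; Dmax denotes maximal degradation.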
On the technique in general: TR-FRET usually uses a lanthanide donor and a delayed reading to cut background.

Experiment [2] concerns the target T1, EGFR L858R/T790M/C797S (BaF3-LTC cells) (Homo sapiens, UniProt P00533, C797S/L858R/T790M).
T1 construct: expressed in transfected cells; host or cells: BaF3
Nature of the experiment: EGFR degradation HTRF assay, BaF3-LTC cells. In kind it is cell-based. The settings on record: BaF3-LTC, 16h treatment; for Dmax: maximum percentage of degradation, read-out: LTC Dmax (%); for DC50: read-out: LTC DC50. Put shortly:
as §1

T1 sequence (P00533 25-1210 T790M/C797S/L858R): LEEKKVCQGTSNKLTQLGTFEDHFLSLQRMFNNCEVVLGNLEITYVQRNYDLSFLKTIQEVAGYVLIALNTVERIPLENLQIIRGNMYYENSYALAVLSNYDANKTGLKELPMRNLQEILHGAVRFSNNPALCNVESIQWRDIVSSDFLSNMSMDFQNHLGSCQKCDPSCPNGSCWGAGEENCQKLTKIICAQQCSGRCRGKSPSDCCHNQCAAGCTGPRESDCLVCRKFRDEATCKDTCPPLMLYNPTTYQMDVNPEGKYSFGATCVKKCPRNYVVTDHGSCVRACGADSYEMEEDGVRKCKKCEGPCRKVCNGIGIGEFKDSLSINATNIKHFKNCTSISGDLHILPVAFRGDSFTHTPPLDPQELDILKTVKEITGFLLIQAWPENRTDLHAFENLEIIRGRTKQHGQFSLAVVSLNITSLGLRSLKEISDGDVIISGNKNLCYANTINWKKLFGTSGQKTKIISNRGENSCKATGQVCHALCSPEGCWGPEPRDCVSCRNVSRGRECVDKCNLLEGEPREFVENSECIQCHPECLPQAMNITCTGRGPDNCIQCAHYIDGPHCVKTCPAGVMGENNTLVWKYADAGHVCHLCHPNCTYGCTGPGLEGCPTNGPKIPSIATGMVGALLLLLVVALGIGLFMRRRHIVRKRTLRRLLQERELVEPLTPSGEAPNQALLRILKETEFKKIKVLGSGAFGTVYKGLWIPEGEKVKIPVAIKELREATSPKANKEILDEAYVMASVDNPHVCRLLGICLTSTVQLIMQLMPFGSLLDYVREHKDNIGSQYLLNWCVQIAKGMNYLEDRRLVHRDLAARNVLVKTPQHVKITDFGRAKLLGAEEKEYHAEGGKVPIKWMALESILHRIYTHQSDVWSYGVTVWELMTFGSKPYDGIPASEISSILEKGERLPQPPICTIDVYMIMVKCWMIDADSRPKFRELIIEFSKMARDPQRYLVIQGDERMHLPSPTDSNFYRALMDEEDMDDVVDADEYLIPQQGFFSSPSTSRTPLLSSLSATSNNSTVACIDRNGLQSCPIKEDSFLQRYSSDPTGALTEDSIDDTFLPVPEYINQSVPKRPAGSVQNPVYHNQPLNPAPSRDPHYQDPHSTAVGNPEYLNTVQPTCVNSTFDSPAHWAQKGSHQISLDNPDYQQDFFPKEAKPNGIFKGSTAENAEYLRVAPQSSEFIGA

With `CCc1cc(Nc2ncc(Br)c(Nc3ccc4nc(C)ccc4c3P(C)(C)=O)n2)c(OC)cc1N1CCC(N2CCC(C(=O)N3CCC(c4cc(F)c(C5CCC(=O)NC5=O)c(F)c4)CC3)CC2)CC1` (stereo not shown) [Example 700, 3-(4-(1-(1′-(4-((5-bromo-4-((5-(dimethylphosphoryl)-2-methylquinolin-6-yl)amino)pyrimidin-2-yl)amino)-2-ethyl-5-methoxyphenyl)-[1,4′-bipiperidine]-4-carbonyl)piperidin-4-yl)-2,6-difluorophenyl)piperidine-2,6-dione], in experiment [1], the “DTC Dmax (%)” value is 83.8% and the DC50 – broadly, the concentration giving 50% degradation – was 6.49 nM. In experiment [2], the Dmax (in general, the greatest extent of degradation seen) was determined as 92.4% and the DC50 is 13.1 nM.

For the compound `CCc1cc(Nc2ncc(Br)c(Nc3ccc4ncn(C)c(=O)c4c3P(C)(C)=O)n2)c(OC)cc1N1CCC(N2CCN(C(=O)C3CCN(c4cc(F)c(C5CCC(=O)NC5=O)c(F)c4)C3)CC2)CC1` (stereo not shown) [Example 701, 3-(4-(3-(4-(1-(4-((5-bromo-4-((5-(dimethylphosphoryl)-3-methyl-4-oxo-3,4-dihydroquinazolin-6-yl)amino)pyrimidin-2-yl)amino)-2-ethyl-5-methoxyphenyl)piperidin-4-yl)piperazine-1-carbonyl)pyrrolidin-1-yl)-2,6-difluorophenyl)piperidine-2,6-dione], in experiment [1], the “DTC Dmax (%)” value is given as 90.24% and the DC50 turned out to be 2.23 nM. In experiment [2], the Dmax was 92.7% and the DC50 was 9.87 nM.

For the compound `CCc1cc(Nc2ncc(C(C)=O)c(Nc3ccc4nccnc4c3P(C)(C)=O)n2)c(OC)cc1N1CCC(N2CCN(CCC3CCN(c4cc(F)c(C5CCC(=O)NC5=O)c(F)c4)CC3)CC2)CC1` (stereo not shown) [Example 703, 3-(4-(4-(2-(4-(1-(4-((5-acetyl-4-((5-(dimethylphosphoryl)quinoxalin-6-yl)amino)pyrimidin-2-yl)amino)-2-ethyl-5-methoxyphenyl)piperidin-4-yl)piperazin-1-yl)ethyl)piperidin-1-yl)-2,6-difluorophenyl)piperidine-2,6-dione], in experiment [1], the “DTC Dmax (%)” value is reported as 93.35% and the DC50 is 6.81 nM. Further, in experiment [2], the Dmax is 87.8% and the DC50 is 20 nM.

For the compound `CCc1cc(Nc2ncc(Br)c(Nc3ccc4nc(C)ccc4c3P(C)(C)=O)n2)c(OC)cc1N1CCC(N2CCN(CCCOc3cc(F)c(C4CCC(=O)NC4=O)c(F)c3)CC2)CC1` (stereo not shown) [Example 704, 3-(4-(3-(4-(1-(4-((5-bromo-4-((5-(dimethylphosphoryl)-2-methylquinolin-6-yl)amino)pyrimidin-2-yl)amino)-2-ethyl-5-methoxyphenyl)piperidin-4-yl)piperazin-1-yl)propoxy)-2,6-difluorophenyl)piperidine-2,6-dione], in experiment [1], the “DTC Dmax (%)” value is on record as 82.31% and the DC50 amounted to 3.98 nM. In experiment [2], the greatest degradation seen (Dmax) is 90.4% and the DC50 stood at 21.9 nM.

As to `CCc1cc(Nc2ncc(Br)c(Nc3ccc4c(=O)n(C)ccc4c3P(C)(C)=O)n2)c(OC)cc1N1CCC(N2CCN(CCc3cccc4c3n(C)c(=O)n4C3CCC(=O)NC3=O)CC2)CC1` (stereo not shown) [Example 705, 3-(4-(2-(4-(1-(4-((5-bromo-4-((5-(dimethylphosphoryl)-2-methyl-1-oxo-1,2-dihydroisoquinolin-6-yl)amino)pyrimidin-2-yl)amino)-2-ethyl-5-methoxyphenyl)piperidin-4-yl)piperazin-1-yl)ethyl)-3-methyl-2-oxo-2,3-dihydro-1H-benzo[d]imidazol-1-yl)piperidine-2,6-dione], in experiment [1], the “DTC Dmax (%)” value stood at 88.58% and the DC50 was determined as 1.53 nM. For the same compound, in experiment [2], the Dmax turned out to be 95.3% and the DC50 stood at 4.56 nM.

Take `CCc1cc(Nc2ncc(Br)c(Nc3ccc4nc(C)ccc4c3P(C)(C)=O)n2)c(OC)cc1N1CCC(N2CCN(C(=O)C(C)(C)CNc3cc(F)c(C4CCC(=O)NC4=O)c(F)c3)CC2)CC1` (stereo not shown) [Example 706, 3-(4-((3-(4-(1-(4-((5-bromo-4-((5-(dimethylphosphoryl)-2-methylquinolin-6-yl)amino)pyrimidin-2-yl)amino)-2-ethyl-5-methoxyphenyl)piperidin-4-yl)piperazin-1-yl)-2,2-dimethyl-3-oxopropyl)amino)-2,6-difluorophenyl)piperidine-2,6-dione]: in experiment [1], the “DTC Dmax (%)” value stood at 88.51% and the DC50 turned out to be 2.17 nM. For the same compound, in experiment [2], the Dmax stood at 90.8% and the DC50 was determined as 5.64 nM.

For the compound `CCc1cc(Nc2ncc(Br)c(Nc3ccc4nc(C)c(C)cc4c3P(C)(C)=O)n2)c(OC)cc1N1CCC(N2CCN(CCc3cc(F)c(C4CCC(=O)NC4=O)c(F)c3)CC2)CC1` (stereo not shown) [Example 707, 3-(4-(2-(4-(1-(4-((5-bromo-4-((5-(dimethylphosphoryl)-2,3-dimethylquinolin-6-yl)amino)pyrimidin-2-yl)amino)-2-ethyl-5-methoxyphenyl)piperidin-4-yl)piperazin-1-yl)ethyl)-2,6-difluorophenyl)piperidine-2,6-dione], in experiment [1], the “DTC Dmax (%)” value is listed as 82.86% and the DC50 came to 3.29 nM. In addition, in experiment [2], the Dmax was determined as 92.1% and the DC50 was 5.79 nM.

In the case of `CCc1cc(Nc2ncc(Br)c(Nc3ccc4nc(C)ccc4c3P(C)(C)=O)n2)c(OC)cc1N1CCC(N2CCN(C(=O)C3CN(CCc4cc(F)c(C5CCC(=O)NC5=O)c(F)c4)C3)CC2)CC1` (stereo not shown) [Example 708, 3-(4-(2-(3-(4-(1-(4-((5-bromo-4-((5-(dimethylphosphoryl)-2-methylquinolin-6-yl)amino)pyrimidin-2-yl)amino)-2-ethyl-5-methoxyphenyl)piperidin-4-yl)piperazine-1-carbonyl)azetidin-1-yl)ethyl)-2,6-difluorophenyl)piperidine-2,6-dione], in experiment [1], the “DTC Dmax (%)” value is given as 81.62% and the DC50 is 15.2 nM. Further, in experiment [2], the Dmax was found to be 91.3% and the 50% degradation concentration (DC50) stood at 22.7 nM.

With `CCc1cc(Nc2ncc(Br)c(Nc3ccc4nc(C)ccc4c3P(C)(C)=O)n2)c(OC)cc1N1CCC(N2CCN(C3CC(c4ccc(NC5CCC(=O)NC5=O)cc4)C3)CC2)CC1` (stereo not shown) [Example 709, 3-((4-(3-(4-(1-(4-((5-bromo-4-((5-(dimethylphosphoryl)-2-methylquinolin-6-yl)amino)pyrimidin-2-yl)amino)-2-ethyl-5-methoxyphenyl)piperidin-4-yl)piperazin-1-yl)cyclobutyl)phenyl)amino)piperidine-2,6-dione], in experiment [1], the “DTC Dmax (%)” value worked out at 84.65% and the DC50 was 19.8 nM. Further, in experiment [2], the Dmax was determined as 87.9% and the DC50 worked out at 21.6 nM.

Take `CCc1cc(Nc2ncc(Br)c(Nc3ccc4nc(C)ccc4c3P(C)(C)=O)n2)c(OC)cc1N1CCC(N2CCN(CCc3ccc4c(c3)C3(CC3)C(=O)N4C3CCC(=O)NC3=O)CC2)CC1` (stereo not shown) [Example 710, 3-(5′-(2-(4-(1-(4-((5-bromo-4-((5-(dimethylphosphoryl)-2-methylquinolin-6-yl)amino)pyrimidin-2-yl)amino)-2-ethyl-5-methoxyphenyl)piperidin-4-yl)piperazin-1-yl)ethyl)-2′-oxospiro[cyclopropane-1,3′-indolin]-1′-yl)piperidine-2,6-dione]: in experiment [1], the “DTC Dmax (%)” value is reported as 87.65% and the DC50 is 2.69 nM. For the same compound, in experiment [2], the Dmax worked out at 90.9% and the DC50 was found to be 13.6 nM.

As for `CCc1cc(Nc2ncc(Br)c(Nc3ccc4nc(C)ccc4c3P(C)(C)=O)n2)c(OC)cc1N1CCC(N2CCN(CCc3ccc4c(c3)C(C)(C)C(=O)N4C3CCC(=O)NC3=O)CC2)CC1` (stereo not shown) [Example 711, 3-(5-(2-(4-(1-(4-((5-bromo-4-((5-(dimethylphosphoryl)-2-methylquinolin-6-yl)amino)pyrimidin-2-yl)amino)-2-ethyl-5-methoxyphenyl)piperidin-4-yl)piperazin-1-yl)ethyl)-3,3-dimethyl-2-oxoindolin-1-yl)piperidine-2,6-dione], in experiment [1], the “DTC Dmax (%)” value was determined as 91.94% and the 50% degradation concentration (DC50) amounted to 0.505 nM. In experiment [2], the greatest degradation seen (Dmax) was 90.8% and the DC50 amounted to 2.88 nM.

Consider `CCc1cc(Nc2ncc(Br)c(Nc3ccc4ncn(C)c(=O)c4c3P(C)(C)=O)n2)c(OC)cc1N1CCC(N2CCN(C(=O)C3CN(c4ccc5c(c4)CN(C4CCC(=O)NC4=O)C5=O)C3)CC2)CC1` (stereo not shown) [Example 712, 3-(5-(3-(4-(1-(4-((5-bromo-4-((5-(dimethylphosphoryl)-3-methyl-4-oxo-3,4-dihydroquinazolin-6-yl)amino)pyrimidin-2-yl)amino)-2-ethyl-5-methoxyphenyl)piperidin-4-yl)piperazine-1-carbonyl)azetidin-1-yl)-1-oxoisoindolin-2-yl)piperidine-2,6-dione], for which, in experiment [1], the “DTC Dmax (%)” value is on record as 91.27% and the DC50 was 2.06 nM. In experiment [2], the Dmax worked out at 88.6% and the DC50 was found to be 7.34 nM.

As to `CCc1cc(Nc2ncc(Br)c(Nc3ccc4nc(C)ccc4c3P(C)(C)=O)n2)c(OC)cc1N1CCC(N2CCCN(CCc3cc(F)c(C4CCC(=O)NC4=O)c(F)c3)CC2)CC1` (stereo not shown) [Example 713, 3-(4-(2-(4-(1-(4-((5-bromo-4-((5-(dimethylphosphoryl)-2-methylquinolin-6-yl)amino)pyrimidin-2-yl)amino)-2-ethyl-5-methoxyphenyl)piperidin-4-yl)-1,4-diazepan-1-yl)ethyl)-2,6-difluorophenyl)piperidine-2,6-dione], in experiment [1], the “DTC Dmax (%)” value came to 86.33% and the DC50 came out at 7.43 nM. In addition, in experiment [2], the Dmax came to 90.4% and the DC50 was 50.8 nM.
